Laboratory results: PMC4626089, “In Vitro Mutational Analysis of the β2 Adrenergic Receptor, an In Vivo Surrogate Odorant Receptor” (PLoS ONE, 2015)

Legend:
mβ2AR::GFP fusion Y326A = mβ2AR::GFP fusion Y326A (Mus musculus, UniProt P18762, Y326A); test: cell-based; conditions: read-out: Maximum response (% of mβ2AR::GFP)
Experimental: (§1) Calcium-based Fluorometric Imaging Plate Reader (FLIPR) experiments were performed as described previously. Mutants analyzed in each figure come from the same FLIPR experiment. […] Relative Fluorescent Units were baseline corrected by subtracting the lowest fluorescent measure for each experiment and a curve was fitted using a 3 parameters model (Hill Slope = 1) using the GraphPad software. Half maximal effective concentrations (EC50) were then calculated and are given in nM. The maximum response, as a percent of wild type, was calculated by reporting the span for a mutant over the span for the wild type.

[1] = molecular target: mβ2AR::GFP fusion mouse C327R (Mus musculus, UniProt P18762, C327R); test: cell-based; conditions: read-out: Maximum response (% of mβ2AR::GFP)
Experimental: as §1

[2] = molecular target: mβ2AR::GFP fusion mouse E268A (Mus musculus, UniProt P18762, E268A); test: cell-based; conditions: read-out: Maximum response (% of mβ2AR::GFP), span of mutant over span of wild type; Fig 4K
Experimental: as §1

[3] = molecular target: mβ2AR::GFP fusion mouse RDY (Mus musculus, UniProt P18762, D130R/R131D); test: cell-based; conditions: Fig 4K
Experimental: as §1

[4] = molecular target: mβ2AR::GFP fusion no-NxS (N6A and N15A) (Mus musculus, UniProt P18762, N15A/N6A); test: cell-based; conditions: read-out: Maximum response (% of mβ2AR::GFP)
Experimental: as §1

[5] = molecular target: mβ2AR::GFP fusion ΔCt➔E338 (Mus musculus, UniProt P18762); test: cell-based; conditions: read-out: Maximum response (% of mβ2AR::GFP)
Experimental: as §1

[6] = molecular target: mβ2AR::GFP fusion ΔCt➔L339 (Mus musculus, UniProt P18762); test: cell-based; conditions: read-out: Maximum response (% of mβ2AR::GFP)
Experimental: as §1

[7] = molecular target: mβ2AR::GFP fusion ΔCt➔Y350 (Mus musculus, UniProt P18762); test: cell-based; conditions: read-out: Maximum response (% of mβ2AR::GFP)
Experimental: as §1

[8] = system: mβ2AR::GFP fusion M71-Nt/Y326A/ΔCt➔R328; conditions: FLIPR dose response; Fig 6E and 6F, comparable to mock
Experimental: as §1

[9] = molecular target: mβ2AR::GFP fusion M71-Nt/mβ2AR/M71-Ct (Mus musculus, UniProt P18762); conditions: span of mutant over span of wild type; Fig 7
Experimental: as §1

[10] = system: mβ2AR::GFP fusion NtΔ9AA/Y326A/ΔCt➔R328; conditions: FLIPR dose response; Fig 6E and 6F, comparable to mock
Experimental: as §1

[11] = molecular target: mβ2AR::GFP fusion NtΔ9AA/mβ2AR/M71-Ct (Mus musculus, UniProt P18762); conditions: span of mutant over span of wild type; Fig 7
Experimental: as §1

[12] = molecular target: mβ2AR::GFP fusion NtΔ9AA/ΔCt➔Y350/ΔC341 (Mus musculus, UniProt P18762, DEL341, form not given); conditions: span of mutant over span of wild type; Fig 3
Experimental: as §1

[13] = molecular target: mβ2AR::GFP fusion Y326A/ΔCt➔R328 (Mus musculus, UniProt P18762, Y326A); conditions: FLIPR dose response; Fig 6E, comparable to no plasmid-mock transfection
Experimental: as §1

[14] = molecular target: mβ2AR::GFP fusion mβ2AR/M71-Ct (Mus musculus, UniProt P18762); conditions: span of mutant over span of wild type; Fig 7
Experimental: as §1

[15] = molecular target: mβ2AR::GFP fusion no-NxS/Y326A/ΔCt➔R328 (Mus musculus, UniProt P18762, N15A/N6A/Y326A); conditions: FLIPR dose response; Fig 6E and 6F, comparable to mock
Experimental: as §1

[16] = molecular target: mβ2AR::GFP fusion ΔCt➔A335 (Mus musculus, UniProt P18762); conditions: FLIPR dose response; Fig 5E
Experimental: as §1

[17] = molecular target: mβ2AR::GFP fusion ΔCt➔Q337 (Mus musculus, UniProt P18762); conditions: FLIPR dose response; Fig 5E
Experimental: as §1

[18] = system: rat I7 (rI7) OR, rI7(RDY); set-up: method as in PMID 16990513, PMID 25550517; conditions: neurons expressing rI7(RDY); cited from earlier work

| SMILES | Emax (mβ2AR::GFP fusion Y326A) | Emax [1] | Emax [2] | Emax ([3]; read-out: Maximum response (% of mβ2AR::GFP), span of mutant over span of wild type) | Maximum response (% of mβ2AR::GFP) ([3]; span of mutant over span of wild type) | Emax [4] | Emax [5] | Emax [6] | Emax [7] | induction by isoprenaline [8] | Maximum response (% of mβ2AR::GFP) [9] | induction by isoprenaline [10] | Maximum response (% of mβ2AR::GFP) [11] | Maximum response (% of mβ2AR::GFP) [12] | capacity to signal after isoprenaline exposure [13] | Maximum response (% of mβ2AR::GFP) [14] | induction by isoprenaline [15] | isoprenaline-mediated responses [16] | isoprenaline-mediated responses [17] | Ca2+ signals in response to octanal [18] |
| --- | --- | --- | --- | --- | --- | --- | --- | --- | --- | --- | --- | --- | --- | --- | --- | --- | --- | --- | --- | --- |
| CC(C)NCC(O)c1ccc(O)c(O)c1 (centres unmarked) [Isoprenaline, isoprenaline] | 89% | 58% | 51% | 58% | ~ 60% | 120% | 19% | 27% | 70% | not induced | 32% | not induced | 34% | 77% | no capacity to signal | 47% | not induced | do not find isoprenaline-mediated responses | do not find isoprenaline-mediated responses |  |
| CCCCCCCC=O [octanal] |  |  |  |  |  |  |  |  |  |  |  |  |  |  |  |  |  |  |  | do not show Ca^2+ signals |
